Where “and” joins values, the source holds several entries; their conditions need not be identical. Equal values may be shown once.
What was measured:
[1] = PCR amplification in vitro (SAR named in the discussion); assay type: biochemical; conditions: paired with any analog
[2] = test system: semi-synthetic organism (SSO) (strain YZ3); test: Replication and UBP retention in vivo in the semi-synthetic organism (streptavidin biotin shift, PAGE), Example 1; assay type: cell-based, Escherichia coli; conditions: for UBP retention: context 1, dNaMTP 125 μM, dTPT3TP analog 10 μM; for UBP retention in vivo, in words: dTPT3TP analog paired with dNaMTP, discussion; for UBP retention (%): Table 5, dTPT3TP 25 μM
Method: All bacteria were cultured in 100 μL of liquid 2×YT media (casein peptone 16 g/L, yeast extract 10 g/L, NaCl 5 g/L) supplemented with potassium phosphate (50 mM, pH 7) in 96-well microwell plates. When noted, antibiotics were used at the following concentrations: chloramphenicol, 5 μg/mL; ampicillin, 100 μg/mL. Cell growth, indicated as OD600, was measured using a Perkin Elmer EnVision 2103 Multilabel Reader with a 590/20 nm filter. Unless otherwise stated, molecular biology reagents were purchased from New England Biolabs (Ipswich, MA) and were used according to the manufacturer's protocols. As necessary, purification of nucleic acids was accomplished by micro-elution columns (Zymo Research Corp; Irvine, CA). All natural oligonucleotides were purchased from IDT (San Diego, CA), and oligonucleotides containing dNaM were synthesized by Biosearch Technologies (Petaluma, CA) with purification by reverse phase cartridge. Unnatural nucleotide triphosphates were prepared, and confirmed by MALDI-TOF and UV/Vis.
Plasmids containing the dNaM-dTPT3 UBP were prepared and used to transform the semi-synthetic organism (SSO). To create a template for in vivo replication assays, Golden Gate assembly was used to construct a derivative of the pUC19 plasmid in which a single dNaM-dTPT3 UBP was embedded within the TK1 sequence ([…]; […]), a context within which the UBP is well replicated in the SSO. Plasmids were then used to transform the SSO (strain YZ3). Following transformation, the SSO was allowed to recover at 37° C. for 1 h in media containing dNaMTP (125 μM) and dTPT3TP (25 μM). Cells were pelleted by centrifugation, resuspended in fresh media lacking unnatural triphosphates, split into 100-μL aliquots and then used to inoculate cultures containing different pairs of unnatural triphosphates at the specified concentrations. When the cell density reached an OD600 of ˜0.7, cells were pelleted and plasmids were recovered and PCR amplified with d5SICSTP and a biotinylated analog of dNaMTP, and UBP retention was determined by comparing the intensity of the streptavidin shifted and unshifted bands via PAGE.

[3] = biological target: T1, Klenow fragment of E. coli DNA polymerase I (Escherichia coli, UniProt P00582); test: Steady-state kinetic assay of unnatural triphosphate insertion; assay type: biochemical; conditions: insertion of dXTP opposite dY = dTPT3 in template
T1 construct: the Klenow fragment of E. coli DNA polymerase I

SSO (strain YZ3) = test: UBP retention in vivo in the SSO (biotin shift assay), Example 2; assay type: cell-based, Escherichia coli
Source text: Thus, to evaluate the UBPs in the in vivo environment of the SSO, Golden Gate assembly was used to construct four derivatives of the pUC19 plasmid containing a single dNaM-dTPT3 UBP, but where it was flanked by one of four different sequence contexts, context 1-4. These sequence contexts show decreasing UBP retention with dNaM-dTPT3. Plasmids were used to transform the SSO (strain YZ3), which was allowed to recover briefly in media containing dTPT3TP and either dNaMTP, dPTMOTP, or dMTMOTP. After transfer to fresh media containing the same triphosphates and ampicillin (to select for plasmid retention), the SSO was allowed to grow to an OD600 of ˜0.7, at which time plasmids were recovered and analyzed for UBP retention the same biotin shift assay described above. FIG. 9 exemplifies the results in vivo.

OneTaq DNA polymerase = test: PCR amplification fidelity of DNA containing a single UBP (UBP retention in vitro); assay type: biochemical; conditions: with dTPT3TP, 20 cycles
Source text: The fidelity with which DNA containing a single UBP is PCR amplified was explored using OneTaq DNA polymerase. To quantify fidelity, templates containing the dNaM-dTPT3 UBP were amplified with dTPT3TP and dNaMTP, dPTMOTP or dMTMOTP. Two templates were used where the UBP was flanked by different sequence contexts; T1, where X (X=NaM, or after the first round of replication, NaM, PTNO, or MTMO) is flanked by a 5′ dA and a 3′ dT, and which with X=dNaM is well replicated in the SSO, and T2 where X is flanked by a 5′ dC and a 3′ dG, and which with X=dNaM is poorly replicated in the SSO. DNA was amplified for 20 cycles with extension times of either 1 min or 45 s, with the shorter times used to probe amplification efficiency. After amplification, the DNA was purified and UBP retention was characterized via a second PCR amplification using OneTaq and DeepVent DNA polymerases and a biotinylated analog of dNaMTP, whose product was analyzed by PAGE.

[4] = context d(ANaMT) / AXT, dTPT3TP 25 μM, triphosphate 5 μM
[5] = context d(ANaMT) / AXT, dTPT3TP 25 μM, triphosphate 10 μM
[6] = context d(ANaMT), with dTPT3TP, triphosphate 25 μM
[7] = context d(ANaMT), with dTPT3TP, triphosphate 150 μM
[8] = context d(CNaMC), with dTPT3TP, triphosphate 25 μM
[9] = context d(CNaMC), with dTPT3TP, triphosphate 150 μM
[10] = context d(CNaMG), with dTPT3TP, triphosphate 25 μM
[11] = context d(CNaMG), with dTPT3TP, triphosphate 150 μM
[12] = template T1 (5′ dA, 3′ dT), extension time 45 s
[13] = template T1 (5′ dA, 3′ dT), extension time 1 min
[14] = template T2 (5′ dC, 3′ dG), extension time 45 s
[15] = template T2 (5′ dC, 3′ dG), extension time 1 min

T1 sequence (P00582 324-928): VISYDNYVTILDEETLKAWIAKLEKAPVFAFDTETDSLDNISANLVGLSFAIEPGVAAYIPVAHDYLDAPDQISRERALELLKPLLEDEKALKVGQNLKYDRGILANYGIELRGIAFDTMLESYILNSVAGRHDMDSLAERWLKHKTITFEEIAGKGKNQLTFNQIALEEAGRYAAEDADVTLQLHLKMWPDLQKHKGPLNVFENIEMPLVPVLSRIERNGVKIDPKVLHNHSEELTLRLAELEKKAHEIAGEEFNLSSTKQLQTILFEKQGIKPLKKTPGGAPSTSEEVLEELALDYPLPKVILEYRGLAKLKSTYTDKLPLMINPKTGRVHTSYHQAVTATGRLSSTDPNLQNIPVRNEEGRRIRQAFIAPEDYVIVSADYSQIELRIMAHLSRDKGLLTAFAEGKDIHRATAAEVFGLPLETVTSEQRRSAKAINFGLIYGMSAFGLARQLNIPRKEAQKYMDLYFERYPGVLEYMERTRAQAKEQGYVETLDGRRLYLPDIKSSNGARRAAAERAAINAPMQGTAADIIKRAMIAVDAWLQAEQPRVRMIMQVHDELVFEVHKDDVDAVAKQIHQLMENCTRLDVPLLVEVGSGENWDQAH

Row | SMILES | PCR amplification [1] | UBP retention [2] | UBP retention in vivo, in words [2] | Km [3] [µM] | kcat [3] | UBP retention (SSO (strain YZ3); [4]) | UBP retention (SSO (strain YZ3); [5]) | UBP retention (SSO (strain YZ3); [6]) [%] | UBP retention (SSO (strain YZ3); [7]) [%] | UBP retention (SSO (strain YZ3); [8]) [%] | UBP retention (SSO (strain YZ3); [9]) [%] | UBP retention (SSO (strain YZ3); [10]) [%] | UBP retention (SSO (strain YZ3); [11]) [%] | UBP retention after PCR amplification (OneTaq DNA polymerase; [12]) [%] | UBP retention after PCR amplification (OneTaq DNA polymerase; [13]) [%] | UBP retention after PCR amplification (OneTaq DNA polymerase; [14]) [%] | UBP retention after PCR amplification (OneTaq DNA polymerase; [15]) [%] | other results
1 | Cc1ccc2c(=O)n(C3CC(O)C(COP(=O)(O)OP(=O)(O)OP(=O)(O)O)O3)ccc2c1 (centres unmarked) [d5MICSTP] | do not support PCR amplification | significant retention | reasonable retention in vivo | – | – | – | – | – | – | – | – | – | – | – | – | – | – | UBP retention in vivo, in words ([2]; listed as d5MICS): reasonably well, but only at low concentration
2 | O=c1c2ccccc2ccn1C1CC(O)C(COP(=O)(O)OP(=O)(O)OP(=O)(O)O)O1 (centres unmarked) [dICSTP] | do not support PCR amplification | significant retention | reasonable retention in vivo | – | – | – | – | – | – | – | – | – | – | – | – | – | – | UBP retention in vivo, in words ([2]; listed as dICS): reasonably well, but only at low concentration
3 | COc1cc2ccsc2cc1C1CC(O)C(COP(=O)(O)OP(=O)(O)OP(=O)(O)O)O1 (centres unmarked) [dMTMOTP] | – | – | – | 0.22 | 0.142 s⁻¹ and 0.142 ± 0.0283 s⁻¹ | 59% and 59±24% | 80% and 80±11% | 96 | 99 | 19 | 62 | 5 | 8 | 84 | 80 | 58 | 58 | –
4 | COc1cc2ccccc2cc1[C@H]1C[C@H](O)[C@@H](COP(=O)(O)OP(=O)(O)OP(=O)(O)O)O1 [dNaMTP, reference compound] | – | – | – | 0.09 | 0.178 s⁻¹ | 17% and 17±21% | 29% and 29±11% | 82 | 98 | 7 | 44 | 5 | 6 | 95 | 100 | 85 | 86 | UBP retention (%) ([2]; sequence context 1 (AXT), dNaMTP or dCNMOTP 25 μM): 85%; UBP retention (%) ([2]; sequence context 1 (AXT), dNaMTP or dCNMOTP 25 μM, listed as dNaM): 85 ± 10%; UBP retention (%) ([2]; sequence context 1 (AXT), dNaMTP or dCNMOTP 125 μM): 99 ± 3%; UBP retention (%) ([2]; sequence context 2 (AXA), dNaMTP or dCNMOTP 25 μM): 36%; UBP retention (%) ([2]; sequence context 2 (AXA), dNaMTP or dCNMOTP 25 μM, listed as dNaM): 36 ± 29%; UBP retention (%) ([2]; sequence context 2 (AXA), dNaMTP or dCNMOTP 125 μM): 73%; UBP retention (%) ([2]; sequence context 2 (AXA), dNaMTP or dCNMOTP 125 μM, listed as dNaM): 73 ± 21%; UBP retention (%) ([2]; sequence context 3 (CXC), dNaMTP or dCNMOTP 25 μM): no retention; UBP retention (%) ([2]; sequence context 3 (CXC), dNaMTP or dCNMOTP 25 μM, listed as dNaM): 7 ± 2%; UBP retention (%) ([2]; sequence context 3 (CXC), dNaMTP or dCNMOTP 125 μM): 26%; UBP retention (%) ([2]; sequence context 3 (CXC), dNaMTP or dCNMOTP 125 μM, listed as dNaM): 26 ± 16%; UBP retention (%) ([2]; sequence context 4 (CXG), dNaMTP or dCNMOTP 25 μM): not retained significantly; UBP retention (%) ([2]; sequence context 4 (CXG), dNaMTP or dCNMOTP 25 μM, listed as dNaM): 9 ± 1%; UBP retention (%) ([2]; sequence context 4 (CXG), dNaMTP or dCNMOTP 125 μM): not retained significantly; UBP retention (%) ([2]; sequence context 4 (CXG), dNaMTP or dCNMOTP 125 μM, listed as dNaM): 13 ± 2%
5 | COc1cc2sccc2cc1[C@H]1C[C@H](O)[C@@H](COP(=O)(O)OP(=O)(O)OP(=O)(O)O)O1 [dPTMOTP] | – | – | – | 0.08 | 0.323 s⁻¹ and 0.323 ± 0.02 s⁻¹ | 77% and 77±22% | 92% and 92±6% | 99 | 98 | 55 | 97 | 2 | 7 | 90 | 98 | 74 | 78 | toxicity to cells (SSO (strain YZ3); SSO cells, concentration matrix 5-150 μM, context CXC): not toxic to cells; effective concentration can be dropped to (SSO (strain YZ3); context CXC (difficult to replicate sequences)): 100 µM; UBP retention (Avg) (SSO (strain YZ3); context CXC, dPTMOTP 5 μM, dTPT3TP 5 μM): 7%; UBP retention (Avg) (SSO (strain YZ3); context CXC, dPTMOTP 5 μM, dTPT3TP 25 μM): 7%; UBP retention (Avg) (SSO (strain YZ3); context CXC, dPTMOTP 5 μM, dTPT3TP 100 μM): 10%; UBP retention (Avg) (SSO (strain YZ3); context CXC, dPTMOTP 5 μM, dTPT3TP 150 μM): 7%; UBP retention (Avg) (SSO (strain YZ3); context CXC, dPTMOTP 25 μM, dTPT3TP 5 μM): 18%; UBP retention (Avg) (SSO (strain YZ3); context CXC, dPTMOTP 25 μM, dTPT3TP 25 μM): 59%; UBP retention (Avg) (SSO (strain YZ3); context CXC, dPTMOTP 25 μM, dTPT3TP 100 μM): 63%; UBP retention (Avg) (SSO (strain YZ3); context CXC, dPTMOTP 25 μM, dTPT3TP 150 μM): 47%; UBP retention (Avg) (SSO (strain YZ3); context CXC, dPTMOTP 100 μM, dTPT3TP 5 μM): 58%; UBP retention (Avg) (SSO (strain YZ3); context CXC, dPTMOTP 100 μM, dTPT3TP 25 μM): 89%; UBP retention (Avg) (SSO (strain YZ3); context CXC, dPTMOTP 100 μM, dTPT3TP 100 μM): 93%; UBP retention (Avg) (SSO (strain YZ3); context CXC, dPTMOTP 100 μM, dTPT3TP 150 μM): 66%; UBP retention (Avg) (SSO (strain YZ3); context CXC, dPTMOTP 150 μM, dTPT3TP 5 μM): 61%; UBP retention (Avg) (SSO (strain YZ3); context CXC, dPTMOTP 150 μM, dTPT3TP 25 μM): 103%; UBP retention (Avg) (SSO (strain YZ3); context CXC, dPTMOTP 150 μM, dTPT3TP 100 μM): 90%; UBP retention (Avg) (SSO (strain YZ3); context CXC, dPTMOTP 150 μM, dTPT3TP 150 μM): 64%

Reference: US12497642B2, “Incorporation of unnatural nucleotides and methods of use in vivo thereof” (THE SCRIPPS RESEARCH INSTITUTE, priority 2017, dated 2025)
